Measurements published in patent US7915402B2, “Antioxidant inflammation modulators: oleanolic acid derivatives with saturation in the C-ring” (Reata Pharmaceuticals, Inc., priority 2008, dated 2011).
Values after ≈ are worked out from the molar mass of the structure shown. Like-named read-outs stand apart in the source and are kept apart here. Marks after values point to notes of the source that are not given here.

Tests used:
[1] = Aqueous solubility determination (Multiscreen solubility filter plate, UV/vis); assay type: physicochemical; details: universal aqueous buffer, pH 7.4, aqueous buffer, kinetic from dmso stock, universal aqueous buffer pH 7.4, 90 min, room temperature
Description: Aqueous Solubility Determination. The following procedure was used to obtain the aqueous solubility results summarized in Example 8. Step 1. Determination of optimal UV/vis wavelengths and generation of standard curves for a compound of interest: • (1) For eight standard calibration curves (one plate), prepare 34 mL of 50:50 (v:v) universal buffer:acetonitrile in a 50 mL tube. • (2) Using a multichannel pipet, dispense (in μL) the buffer:acetonitrile in a deep well plate as follows:
• (6) Cover plate with lid and shake (200-300 rpm) at room temperature for 20 minutes. • (7) Mix all wells by pipetting up and down 10 times. • (8) Transfer 120 μL from each well to a UV transparent plate. Cover and shake for 3-5 minutes. Remove any bubbles in the wells using a pipet. • (9) Read from 220 nm to 500 nm at 10 nm increments on a spectrophotometer (e.g., SpectraMax®).
Step 2. Compound Solubility Testing Procedures Using the Millipore™ Multiscreen® Solubility Filter Plate.
Universal Aqueous Buffer: • (a) To prepare 500 mL of universal buffer, add the following: 250 mL Nanopure water; 1.36 mL (45 mM) ethanolamine; 3.08 g (45 mM) potassium dihydrogen phosphate; 2.21 g (45 mM) potassium acetate; thoroughly mix. • (b) Adjust pH to 7.4 with HCl and q.s. to 500 mL with 0.15 M KCl. • (c) Filter to remove particulates and reduce bacterial growth. • (d) Store at 4° C. in the dark.
Solubility Protocol: • (a) Add 285 μL of Universal Aqueous Buffer to desired wells of the Millipore™ Multiscreen® Solubility filter plate. • (b) Add 15 μL of 10 mM compound in DMSO to the appropriate wells. Add 15 μL of 100% DMSO only to 6 wells of the filter plate for blanks. • (c) Using a multichannel pipet, mix wells by pipetting up and down 10 times. Be careful not to touch the filters in the plate with the tips. • (d) Cover and gently shake (200-300 rpm) filter plate for 90 minutes at room temperature. • (e) Vacuum filter the aqueous solution from the Multiscreen® solubility filter plate into a polypropylene V-bottom plate. • (f) Transfer 60 μL of filtrate to a UV transparent plate (Greiner® UV-Star Analysis Plate). • (g) Add 60 μL of acetonitrile to each well and mix by pipetting up and down 10 times. • (h) Cover and gently shake for 3-5 minutes. Remove any bubbles with a pipet. • (i) Measure the absorbance of each well in the plate on the spectrophotometer (UV/vis) at the desired wavelength. For compounds in a plate with different absorbance peaks, set the spectrophotometer to read a spectrum (e.g., from 220 nm to 460 nm). • (j) Identify concentration using measured absorbance for each compound and the predetermined standard curve (see Step 1).

[2] = test system: IFNγ-induced NO production in RAW264.7 macrophages; assay: Suppression of IFNγ-induced NO production (Griess reagent); assay type: cell-based, mouse; details: RAW264.7, 20 ng/ml IFNγ 24 h, 2 h pre-treatment
Description: (§1) FIGS. 1-8 and 32-34. Inhibition of NO Production. RAW264.7 macrophages were pre-treated with DMSO or drugs at various concentrations (nM) for 2 hours, then treated with 20 ng/ml IFNγ for 24 hours. NO concentration in media was determined using a Griess reagent system; cell viability was determined using WST-1 reagent.
(§2) Nitric Oxide production and cell viability. RAW264.7 macrophages were pre-treated with DMSO or drugs for 2 hours, then treated with recombinant mouse IFNγ (Sigma) for 24 hours. NO concentration in media was determined using the Griess reagent system (Promega). Cell viability was determined using WST-1 reagent (Roche).

RAW264.7 macrophages = assay: Cell viability, WST-1 reagent; assay type: cell-based, mouse; details: RAW264.7 (20 ng/ml IFNγ)
Description: as §1, §2

HO-1 = assay: Nrf2 target gene induction, HO-1 mRNA (qPCR); assay type: cell-based, human; details: MDA-MB-435 cells
Description: (§3) FIGS. 17-20. Induction of HO-1. MDA-MB-435 human melanoma cells were treated with vehicle (DMSO) or the indicated compounds and concentrations for 16 hours. HO-1 mRNA levels were quantified using qPCR and were normalized relative to a DMSO-treated sample run in parallel. Values are averages of duplicate wells.
as §3, with “FIG. 21.” for “FIGS. 17-20.”, “HO-1, TrxR1 and γ-GCS.” for “HO-1.”, “HO-1, thioredoxin reductase-1 (TrxR1), and γ-glutamylcysteine synthetase (γ-GCS)” for “HO-1”
as §3, with “Nrf2 target gene induction.” for “FIGS. 17-20. Induction of HO-1.”, “HO-1, thioredoxin reductase-1 (TrxR1), γ-glutamylcysteine synthetase (γ-GCS), and ferritin heavy chain” for “HO-1”, “wells. Primer sequences are as follows.” for “wells.”

[3] = test system: thioredoxin reductase-1 (TrxR1); assay: Nrf2 target gene induction, TrxR1 mRNA (qPCR); assay type: cell-based, human; details: MDA-MB-435 cells, 400 nM; percent of induction observed for 402
Description: as §3, with “FIG. 21.” for “FIGS. 17-20.”, “HO-1, TrxR1 and γ-GCS.” for “HO-1.”, “HO-1, thioredoxin reductase-1 (TrxR1), and γ-glutamylcysteine synthetase (γ-GCS)” for “HO-1”
as §3, with “FIG. 22.” for “FIGS. 17-20.”, “TrxR1.” for “HO-1.”, “Thioredoxin reductase-1 (TrxR1)” for “HO-1”, “wells. Compounds 401, 402-19 and 402-53 are comparison compounds (see Example 1).” for “wells.”
as §3, with “Nrf2 target gene induction.” for “FIGS. 17-20. Induction of HO-1.”, “HO-1, thioredoxin reductase-1 (TrxR1), γ-glutamylcysteine synthetase (γ-GCS), and ferritin heavy chain” for “HO-1”, “wells. Primer sequences are as follows.” for “wells.”

[4] = test system: γ-glutamylcysteine synthetase (γ-GCS); assay: Nrf2 target gene induction, γ-GCS mRNA (qPCR); assay type: cell-based, human; details: MDA-MB-435 cells
Description: as §3, with “FIG. 21.” for “FIGS. 17-20.”, “HO-1, TrxR1 and γ-GCS.” for “HO-1.”, “HO-1, thioredoxin reductase-1 (TrxR1), and γ-glutamylcysteine synthetase (γ-GCS)” for “HO-1”
as §3, with “FIG. 23.” for “FIGS. 17-20.”, “γ-GCS.” for “HO-1.”, “γ-glutamylcysteine synthetase (γ-GCS)” for “HO-1”
as §3, with “Nrf2 target gene induction.” for “FIGS. 17-20. Induction of HO-1.”, “HO-1, thioredoxin reductase-1 (TrxR1), γ-glutamylcysteine synthetase (γ-GCS), and ferritin heavy chain” for “HO-1”, “wells. Primer sequences are as follows.” for “wells.”

mice = details: sesame oil, N=4
NQO1 = assay: Nrf2 target gene induction, NQO1; assay type: cell-based, human; details: MDA-MB-435 cells, 250 nM; fold induction above DMSO control
[5] = Triterpenoid levels in mouse brain after feeding in diet (LC/MS); assay type: in vivo; details: CD-1 mice, 200 or 400 mg/kg diet for 3.5 days
Description: CD-1 mice were fed either 200 or 400 mg/kg diet of either TP-319 or TP-500 for 3.5 days, and TP levels in the brains of the mice were analyzed by LC/MS. The structures of TP-319 and TP-500 are shown below.

[6] = 400 nM, percent of induction observed for 402
[7] = 250 nM, fold induction above DMSO control

Row | Compound | solubility at 90 min [1] | IC50 ([2]; Mus musculus) | IC50 (RAW264.7 macrophages; Mus musculus) | HO-1 induction (HO-1; [7]) | NQO1 induction (NQO1) | also measured
1 | COC(=O)[C@]12CCC(C)(C)C[C@H]1[C@H]1C(=O)C=C3[C@@]4(C)C=C(C#N)C(=O)C(C)(C)[C@@H]4CC[C@@]3(C)[C@]1(C)CC2 [Compound 402, reference compound] | 1.46 µM (≈ 0.738 µg/mL) |  |  |  |  | 
2 | CC1(C)CC[C@]2(C(=O)O)CC[C@]3(C)[C@H](C(=O)CC4[C@@]5(C)C=C(C#N)C(=O)C(C)(C)[C@@H]5CC[C@]43C)[C@@H]2C1 (stereo partly drawn) [Compound 63196, (4aS,6aR,6bR,8aR,12aR,14aR,14bS)-11-cyano-2,2,6a,6b,9,9,12a-heptamethyl-10,14-dioxo-1,2,3,4,4a,5,6,6a,6b,7,8,8a,9,10,12a,12b,13,14,14a,14b-icosahydropicene-4a-carboxylic acid] |  | ~75 nM | > 200 nM |  |  | HO-1 induction (HO-1; [6]): 1%; TrxR1 induction [3]: 48%; γ-GCS induction [4, 6]: 26%; Number of Deaths (mice; oral gavage QDx14, 10 mg/kg): 0; Number of Deaths (mice; oral gavage QDx14, 50 mg/kg): 1*; Number of Deaths (mice; oral gavage QDx14, 100 mg/kg): 0; Number of Deaths (mice; oral gavage QDx14, 250 mg/kg): 1
3 | COC(=O)[C@]12CCC(C)(C)C[C@H]1[C@H]1[C@H](O)C[C@@H]3[C@@]4(C)C=C(C#N)C(=O)C(C)(C)[C@@H]4CC[C@@]3(C)[C@]1(C)CC2 [Compound 63207] |  |  |  | 1.2 fold | 1.6 fold | IC50 [2]: ~50 nM; IC50 (RAW264.7 macrophages): > 200 nM; γ-GCS induction [4, 7]: 3.1 fold
4 | COC(=O)[C@]12CCC(C)(C)C[C@H]1[C@H]1[C@@H](O)C[C@@H]3[C@@]4(C)C=C(C#N)C(=O)C(C)(C)[C@@H]4CC[C@@]3(C)[C@]1(C)CC2 [Compound 63219] | 13.6 µM (≈ 6.92 µg/mL) | ~150 nM | > 200 nM |  |  | 
5 | CC1(C)CC[C@]2([C@@H](O)CO)CC[C@]3(C)[C@H](C(=O)C[C@@H]4[C@@]5(C)C=C(C#N)C(=O)C(C)(C)[C@@H]5CC[C@]43C)[C@@H]2C1 [Compound 63221] | 8.78 µM (≈ 4.48 µg/mL) |  |  |  |  | 
6 | CC1(C)CC[C@]2(CNC(=O)C(F)(F)F)CC[C@]3(C)[C@H](C(=O)C[C@@H]4[C@@]5(C)C=C(C#N)C(=O)C(C)(C)[C@@H]5CC[C@]43C)[C@@H]2C1 [Compound 63226] | 0.71 µM (≈ 0.408 µg/mL) |  |  |  |  | 
7 | CC1(C)CC[C@]2(CCO)CC[C@]3(C)[C@H](C(=O)C[C@@H]4[C@@]5(C)C=C(C#N)C(=O)C(C)(C)[C@@H]5CC[C@]43C)[C@@H]2C1 [Compound 63231] | 1.23 µM (≈ 0.607 µg/mL) |  |  |  |  | 
8 | Cc1cc(CNC[C@]23CCC(C)(C)C[C@H]2[C@H]2C(=O)C[C@@H]4[C@@]5(C)C=C(C#N)C(=O)C(C)(C)[C@@H]5CC[C@@]4(C)[C@]2(C)CC3)no1 [Compound 63232] | 0.75 µM (≈ 0.43 µg/mL) |  |  |  |  | 
9 | CC1(C)CC[C@]23CC[C@@]4(C)[C@]5(C)CC[C@H]6C(C)(C)C(=O)C(C#N)=C[C@]6(C)[C@H]5CC(=O)[C@@]4([C@@H]2C1)N(CC(F)(F)F)C3=O [Compound 63237] | 5.16 µM (≈ 2.96 µg/mL) | ~80 nM | > 200 nM | 3 fold | 2.3 fold | γ-GCS induction [4, 7]: 6.4 fold
10 | CC1(C)CC[C@]2(C(=O)NCC(F)(F)F)CC[C@]3(C)[C@H](C(=O)C=C4[C@@]5(C)C=C(C#N)C(=O)C(C)(C)[C@@H]5CC[C@]43C)[C@@H]2C1 [TP-500] |  |  |  |  |  | level detected in mouse brain compared with CDDO-EA (TP-319) [5]: Higher Levels

The next lines start with results.

Row | solubility at 90 min [1] | IC50 ([2]; Mus musculus) | Compound | IC50 (RAW264.7 macrophages; Mus musculus) | HO-1 induction (HO-1; [7]) | NQO1 induction (NQO1) | also measured
11 | 1.89 µM (≈ 0.907 µg/mL) |  | CC1(C)CC[C@]2(CO)CC[C@]3(C)[C@H](C(=O)C[C@@H]4[C@@]5(C)C=C(C#N)C(=O)C(C)(C)[C@@H]5CC[C@]43C)[C@@H]2C1 [Compound 63202] |  |  |  | 
12 |  | ~25 nM | CC1(C)CC[C@]2(C(N)=O)CC[C@]3(C)[C@H](C(=O)CC4[C@@]5(C)C=C(C#N)C(=O)C(C)(C)[C@@H]5CC[C@]43C)[C@@H]2C1 (stereo partly drawn) [Compound 63205, (4aS,6aR,6bR,8aR,12aR,14aR,14bS)-11-cyano-2,2,6a,6b,9,9,12a-heptamethyl-10,14-dioxo-1,2,3,4,4a,5,6,6a,6b,7,8,8a,9,10,12a,12b,13,14,14a,14b-icosahydropicene-4a-carboxamide] | > 200 nM | 1.7 fold | 1.7 fold | γ-GCS induction [4, 7]: 3.5 fold
13 |  | ~10 nM | CC1(C)CC[C@]2(C=O)CC[C@]3(C)[C@H](C(=O)CC4[C@@]5(C)C=C(C#N)C(=O)C(C)(C)[C@@H]5CC[C@]43C)[C@@H]2C1 (stereo partly drawn) [Compound 63206, (4aR,6aR,6bR,8aS,12aS,12bR,14bR)-8a-formyl-4,4,6a,6b,11,11,14b-heptamethyl-3,13-dioxo-3,4,4a,5,6,6a,6b,7,8,8a,9,10,11,12,12a,12b,13,14,14a,14b-icosahydropicene-2-carbonitrile] | > 200 nM | 2.5 fold | 1.8 fold | γ-GCS induction [4, 7]: 4.5 fold
14 | 112 µM (≈ 53.7 µg/mL) |  | CC1(C)CC[C@]2(CN)CC[C@]3(C)[C@H](C(=O)C[C@@H]4[C@@]5(C)C=C(C#N)C(=O)C(C)(C)[C@@H]5CC[C@]43C)[C@@H]2C1 [Compound 63214] |  |  |  | 
15 |  | ~5 nM | CC1(C)CC[C@]2(C#N)CC[C@]3(C)[C@H](C(=O)CC4[C@@]5(C)C=C(C#N)C(=O)C(C)(C)[C@@H]5CC[C@]43C)[C@@H]2C1 (stereo partly drawn) [Compound 63252, (4aR,6aR,6bR,8aS,12aS,12bR,14bR)-4,4,6a,6b,11,11,14b-heptamethyl-3,13-dioxo-3,4,4a,5,6,6a,6b,7,8,8a,9,10,11,12,12a,12b,13,14,14a,14b-icosahydropicene-2,8a-dicarbonitrile] | > 200 nM | 5 fold | 3 fold | 
